According to patent US6080733A, “Thioureido-cyclodextrins, utilized in particular to solubilize anti-tumor, and antiparasitic agents and their preparation processes” (Centre National de la Recherche Scientifique, priority 1996, dated 2000):
“And” between values parts separate entries of the source, which are not always exact repeats. Equal values may be shown once. Each block holds one compound with its values, some of them ahead of it.

Tests used:
[1] = cited from earlier work
[2] = solubility in water of the thioureido-cyclodextrins; assay type: physicochemical

Compound: CC(=O)O[C@@]12CO[C@@H]1C[C@H](O)[C@@]1(C)C(=O)[C@H](O)C3=C(C)[C@@H](OC(=O)[C@H](O)[C@@H](NC(=O)OC(C)(C)C)c4ccccc4)C[C@@](O)([C@@H](OC(=O)c4ccccc4)[C@H]21)C3(C)C [Taxotere]
solubility in water of Taxotere, raised by encapsulation ([1]; encapsulated in 6^I -S-α-maltosyl-6^I -thiocyclo-maltaheptaose (WO-A-95/19994)): 6500 µg/mL
solubility in water of Taxotere ([1]; without cyclodextrin): 4 µg/mL

solubility [2]: 775000 µg/mL and 640000 µM
Compound: CNC(=S)NC[C@H]1O[C@@H]2O[C@H]3[C@H](O)[C@@H](O)[C@@H](O[C@H]4[C@H](O)[C@@H](O)[C@@H](O[C@H]5[C@H](O)[C@@H](O)[C@@H](O[C@H]6[C@H](O)[C@@H](O)[C@@H](O[C@H]7[C@H](O)[C@@H](O)[C@@H](O[C@H]8[C@H](O)[C@@H](O)[C@@H](O[C@H]1[C@H](O)[C@H]2O)O[C@@H]8CO)O[C@@H]7CO)O[C@@H]6CO)O[C@@H]5CO)O[C@@H]4CO)O[C@@H]3CO [compound n°1, 6^I -desoxy-6^I -(N'-methylthioureido) cyclomaltoheptaose]

solubility [2]: 710000 µg/mL and 518000 µM
Compound: CO[C@H]1O[C@H](CNC(=S)NC[C@H]2O[C@@H]3O[C@H]4[C@H](O)[C@@H](O)[C@@H](O[C@H]5[C@H](O)[C@@H](O)[C@@H](O[C@H]6[C@H](O)[C@@H](O)[C@@H](O[C@H]7[C@H](O)[C@@H](O)[C@@H](O[C@H]8[C@H](O)[C@@H](O)[C@@H](O[C@H]9[C@H](O)[C@@H](O)[C@@H](O[C@H]2[C@H](O)[C@H]3O)O[C@@H]9CO)O[C@@H]8CO)O[C@@H]7CO)O[C@@H]6CO)O[C@@H]5CO)O[C@@H]4CO)[C@@H](O)[C@H](O)[C@H]1O [compound n°2]

solubility in water [2]: 558 g/l and 373 mM
Compound: CO[C@H]1O[C@H](CNC(=S)NC[C@H]2O[C@@H]3O[C@H]4[C@H](O)[C@@H](O)[C@@H](O[C@H]5[C@H](O)[C@@H](O)[C@@H](O[C@H]6[C@H](O)[C@@H](O)[C@@H](O[C@H]7[C@H](O)[C@@H](O)[C@@H](O[C@H]8[C@H](O)[C@@H](O)[C@@H](O[C@H]9[C@H](O)[C@@H](O)[C@@H](O[C@H]2[C@H](O)[C@H]3O)O[C@@H]9CO)O[C@@H]8CO)O[C@@H]7CO)O[C@@H]6CO)O[C@@H]5CO)O[C@@H]4CO)[C@@H](OC(C)=O)[C@H](OC(C)=O)[C@H]1OC(C)=O [compound n°3]
